Measurements from patent US8178506B2, “Oligomeric compounds and compositions for use in modulation of small non-coding RNAs” (Regulus Therapeutics Inc., priority 2003, dated 2012).
In the oligonucleotide strings, read from the 5' end, every base follows the letter of its sugar. An asterisk marks phosphorothioate; unmarked linkages are phosphodiester. Other units and linkages are bracketed, terminal groups are in braces. A string of capitals states the bases alone. e = 2'-O-(2-methoxyethyl) (MOE); [5mC] = 5-methylcytosine

How the values were obtained:
PEPCK-c = PEPCK-c mRNA expression in HepG2 cells; assay type: cell-based, human; conditions: HepG2, 100 nM oligomeric compound
[1] = tested on: BJ, B16-F10, T47D, T47Dp53 and HeLa cells; experiment: Cell cycle assay (propidium iodide flow cytometry), cell line panel; assay type: cell-based; conditions: 150 nM oligomeric compound, 4.5 μg/ml LIPOFECTIN, after 72 hours, propidium iodide flow cytometry
[2] = Experiment 1, basal (no insulin)
[3] = Experiment 2, 1 nM insulin treated

Row | Substance | PEPCK-c (% UTC) (PEPCK-c; [2]) | PEPCK-c (% UTC) (PEPCK-c; [3]) | G1 (percentage of cells in phase of the cell cycle) [1] | G2/M (percentage of cells in phase of the cell cycle) [1] | S (percentage of cells in phase of the cell cycle) [1] | SubG1 (percentage of cells in phase of the cell cycle) [1] | aneuploid (percentage of cells) [1]
1 | 327922 (antisense eT*e[5mC]*eA*eG*eT*eT*eT*eT*eG*e[5mC]*eA*eT*eG*eG*eA*eT*eT*eT*eG*e[5mC]*eA*e[5mC]*eA) [compound 327922] | 77 % UTC | 76 % UTC | 50.4% | 18.9% | 30.7% | 10% | 16.8%
2 | 327901 (antisense eT*eG*eA*eG*e[5mC]*eT*eA*e[5mC]*eA*eG*eT*eG*e[5mC]*eT*eT*e[5mC]*eA*eT*e[5mC]*eT*e[5mC]*eA) [compound 327901] | 119 % UTC | 117 % UTC | 34.7% | 20.3% | 44.9% | 12% | 13.6%
3 | 327889 (antisense eG*eT*eG*eG*eT*eA*eA*eT*e[5mC]*e[5mC]*e[5mC]*eT*eG*eG*e[5mC]*eA*eA*eT*eG*eT*eG*eA*eT) [compound 327889] | 137 % UTC | 202 % UTC | 53.1% | 14.4% | 32.5% | 8.2% | 10.5%
4 | 327905 (antisense e[5mC]*eA*eG*eA*e[5mC]*eT*e[5mC]*e[5mC]*eG*eG*eT*eG*eG*eA*eA*eT*eG*eA*eA*eG*eG*eA) [compound 327905] | 129 % UTC | 147 % UTC | 56.9% | 15% | 28.1% | 8.5% | 14.7%
5 | 327903 (antisense eA*eA*e[5mC]*eT*eA*eT*eA*e[5mC]*eA*eA*e[5mC]*e[5mC]*eT*eA*e[5mC]*eT*eA*e[5mC]*e[5mC]*eT*e[5mC]*eA) [compound 327903] | 71 % UTC | 87 % UTC | 53.7% | 15.4% | 30.9% | 11% | 13.4%
6 | 327919 (antisense eG*eA*eA*eA*e[5mC]*e[5mC]*e[5mC]*eA*eG*e[5mC]*eA*eG*eA*e[5mC]*eA*eA*eT*eG*eT*eA*eG*e[5mC]*eT) [compound 327919] | 71 % UTC | 105 % UTC | 54.3% | 15.4% | 30.3% | 10.8% | 16%
